Data as given in US20090155869A1 (Gevo, Inc., priority 2006, published 2009).

Assays:
M. elsdenii Bcd = molecular target: T1, M. elsdenii Bcd (Megasphaera elsdenii, UniProt Q06319); conditions: inhibition of M. elsdenii Bcd; cited from earlier work
T1 sequence (Q06319 1-383): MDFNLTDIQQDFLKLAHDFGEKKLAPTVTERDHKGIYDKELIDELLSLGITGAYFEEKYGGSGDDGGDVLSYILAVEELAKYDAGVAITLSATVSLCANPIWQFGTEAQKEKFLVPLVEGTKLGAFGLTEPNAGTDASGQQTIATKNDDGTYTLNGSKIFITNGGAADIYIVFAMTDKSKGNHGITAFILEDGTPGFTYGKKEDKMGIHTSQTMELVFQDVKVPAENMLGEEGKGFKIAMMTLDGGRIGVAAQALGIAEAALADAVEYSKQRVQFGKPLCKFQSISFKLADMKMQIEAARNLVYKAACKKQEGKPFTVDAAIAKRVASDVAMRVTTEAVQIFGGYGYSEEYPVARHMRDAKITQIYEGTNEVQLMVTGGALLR

[1] = system: C. acetobutylicum P262 Bcd; conditions: read-out: Km of the C. acetobutylicum P262 Bcd for butyryl-CoA; cited from earlier work
Bcd = conditions: read-out: Km of Bcd for butyryl-CoA; unit inferred; cited from earlier work
[2] = molecular target: crotonase (Crt) from C. acetobutylicum (Clostridium acetobutylicum, UniProt P52046); conditions: crotonyl-CoA as substrate of C. acetobutylicum crotonase; cited from earlier work
[3] = in-vitro activity assay of Hbd homologues in lysate, NADH consumption at 340 nm; format: biochemical; conditions: lysate of GEVO768 (E. coli W3110Z1) transformant, 0.1 mM acetoacetyl CoA, 0.2 mM NADH, pH 7.0
From the text: (§1) In particular, homologues of the pathway enzymes hydroxyl butyryl CoA dehydrogenase (Hbd), crotonase (Crt) and thiolase (Th1) were expressed and compared by in-vitro activity assay. The hydroxyl butyryl CoA dehydrogenase homologues tested were pGV1037 (Hbd from Clostridium acetobutylicum), pGV1041 (Hbd from Butyrivibrio fibrisolvens), pGV1050 (Hbd from Clostridium beijerinkii), and pGV1154 (Hbd from Clostridium acetobutylicum, codon optimized gene sequence). The crotonase homologues tested were pGV1040 (Crt from Butyrivibrio fibrisolvens), pGV1049 (Crt from Clostridium beijerinkii), pGV1094 (Crt from Clostridium acetobutylicum) and pGV1189 (Crt from Clostridium acetobutylicum, codon optimized gene sequence). The thiolase homologues tested were pGV1035 (Th1 from Clostridium acetobutylicum), pGV1039 (Th1 from Butyrivibrio fibrisolvens), and pGV1188 (Th1 from Clostridium acetobutylicum, codon optimized gene sequence). The genes were expressed and assayed as per the following outlined protocol
(§2) GEVO768 (E. coli W3110Z1) was transformed with each of the plasmids and the transformants were plated on LB media with 100 μg/mL of chloramphenicol. The plates were incubated at 37° C. for 14-16 hours. Single colonies of the clones were used to inoculate 3 mL of LB media with 100 μg/mL of chloramphenicol. The cultures were incubated overnight at 37° C. at 250 rpm. The overnight cultures were used to inoculate 50 mL of EZ-rich medium in shake flasks with 100 μg/mL of chloramphenicol. The cultures were incubated at 37° C. at 250 rpm. At mid-exponential growth phase (OD600 0.6-0.8) the cultures were induced with 1 mM IPTG. […]
(§3) To test the activity of Hbd, 10 μL of the lysate was added to 190 μL of 50 mM MOPS pH 7.0 buffer containing 0.1 mM acetoacetyl CoA, and 0.2 mM NADH. The activity of Hbd was measured by monitoring the consumption of NADH at 340 nm. […] Enzyme activity was measured by monitoring the consumption of crotonyl CoA at 263 nm. […] Enzyme activity was measured by monitoring the consumption of acetoacetyl CoA at 303 nm. […]

[4] = in-vitro activity assay of Crt homologues in lysate, crotonyl CoA consumption at 263 nm; format: biochemical; conditions: lysate of GEVO768 (E. coli W3110Z1) transformant, 30 μM crotonyl CoA, pH 7.6
From the text: as §1, §2, §3

CC(=O)CC(=O)O [acetoacetate]
Ki (M. elsdenii Bcd): 100 nM

CCCC(=O)SCCNC(=O)CCNC(=O)[C@H](O)C(C)(C)COP(=O)(O)OP(=O)(O)OC[C@H]1O[C@@H](n2cnc3c(N)ncnc32)[C@H](O)[C@@H]1OP(=O)(O)O [butyryl-CoA]
Km [1]: ~6 µM
Km (Bcd): 5 µM

C/C=C/C(=O)SCCNC(=O)CCNC(=O)[C@H](O)C(C)(C)COP(=O)(O)OP(=O)(O)OC[C@H]1O[C@@H](n2cnc3c(N)ncnc32)[C@H](O)[C@@H]1OP(=O)(O)O [crotonyl-CoA]
Km [2]: 30 µM
Vmax [2]: 6.5×10^6 moles per min per mole

pGV1037: plasmid-expressed Hbd from Clostridium acetobutylicum
Specific activity (Hbd) [3]: 3.51 nmol/min/μg total cell protein

pGV1154: plasmid-expressed Hbd from Clostridium acetobutylicum, codon optimized gene sequence
Specific activity (Hbd) [3]: 11.69 nmol/min/μg total cell protein
Specific activity (Hbd) ([3]; listed as Hbd): 11.6 nmol/min/μg total cell protein

B1: GV1189: plasmid-expressed Crt from Clostridium acetobutylicum, codon optimized gene sequence (protein, UniProt P52046 1-261, looked up)
Short-chain-enoyl-CoA …: MELNNVILEKEGKVAVVTINRPKALNALNSDTLKEMDYVIGEIENDSEVLAVILTGAGEKSFVAGADISEMKEMNTIEGRKFGILGNKVFRRLELLEKPVIAAVNGFALGGGCEIAMSCDIRIASSNARFGQPEVGLGITPGFGGTQRLSRLVGMGMAKQLIFTAQNIKADEALRIGLVNKVVEPSELMNTAKEIANKIVSNAPVAVKLSKQAINRGMQCDIDTALAFESEAFGECFSTEDQKDAMTAFIEKRKIEGFKNR
Specific activity (Crt) [4]: 916.99 nmol/min/μg total cell protein
Specific activity (Crt) ([4]; listed as crotonase): 1178 nmol/min/μg total cell protein

B2: pGV1094: plasmid-expressed Crt from Clostridium acetobutylicum (protein, UniProt P52046 1-261, looked up)
Short-chain-enoyl-CoA …: B1 Short-chain-enoyl-CoA …
Specific activity (Crt) [4]: 83.39 nmol/min/μg total cell protein
